Measured values taken from the supplement of paper PMC10307832.

Assays:
Assay in all cases: relative viability (nuclei count vs DMSO), 5 days (fraction); higher = more cells survive
[1] = compound: CC1=C(N=C(N=C1N)[C@H](CC(=O)N)NC[C@@H](C(=O)N)N)C(=O)N[C@@H]([C@H](C2=CN=CN2)OC3C(C(C(C(O3)CO)O)O)OC4C(C(C(C(O4)CO)O)OC(=O)N)O)C(=O)N[C@H](C)[C@H]([C@H](C)C(=O)N[C@@H]([C@@H](C)O)C(=O)NCCC5=NC(=CS5)C6=NC(=CS6)C(=O)NCCC[S+](C)C)O [Bleomycin] + Cc1nc(NC(=O)N2CCC[C@H]2C(N)=O)sc1-c1ccnc(C(C)(C)C(F)(F)F)c1 [Alpelisib] (partner 2 µM); conditions: main component drawn
Procedure, shortened: (§1)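 One day after seeding in 1536-well plates, lung cancer cell lines were dosed by pin tool. Dosing was either single-drug or a fixed anchor-drug dose plus five library-drug doses (not always all listed) in √10 steps. After 5 days, nuclei were stained in one fix-and-stain step and counted on 4× images, and relative viability is the nuclei count of treated wells over that of vehicle wells, given as the median of duplicate plates.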

[2] = compound: CC1=C(N=C(N=C1N)[C@H](CC(=O)N)NC[C@@H](C(=O)N)N)C(=O)N[C@@H]([C@H](C2=CN=CN2)OC3C(C(C(C(O3)CO)O)O)OC4C(C(C(C(O4)CO)O)OC(=O)N)O)C(=O)N[C@H](C)[C@H]([C@H](C)C(=O)N[C@@H]([C@@H](C)O)C(=O)NCCC5=NC(=CS5)C6=NC(=CS6)C(=O)NCCC[S+](C)C)O [Bleomycin] + Cc1nc(Nc2ncc(C(=O)Nc3c(C)cccc3Cl)s2)cc(N2CCN(CCO)CC2)n1 [Dasatinib] (partner 0.075 µM); conditions: main component drawn
Procedure, shortened: as §1

[3] = compound: COc1cc([C@@H]2c3cc4c(cc3[C@@H](O[C@@H]3O[C@@H]5CO[C@@H](C)O[C@H]5[C@H](O)[C@H]3O)[C@H]3COC(=O)[C@H]23)OCO4)cc(OC)c1O [Etoposide] + COc1cc2c(Oc3ccc(NC(=O)C4(C(=O)Nc5ccc(F)cc5)CC4)cc3F)ccnc2cc1OCCCN1CCOCC1 [Foretinib] (partner 0.25 µM)
Procedure, shortened: as §1

[4] = compound: COc1cc([C@@H]2c3cc4c(cc3[C@@H](O[C@@H]3O[C@@H]5CO[C@@H](C)O[C@H]5[C@H](O)[C@H]3O)[C@H]3COC(=O)[C@H]23)OCO4)cc(OC)c1O [Etoposide] + N=C(N)NC(=N)NCCc1ccccc1 [Phenformin] (partner 250 µM)
Procedure, shortened: as §1

Cell Line	relative viability ([1]; first compound 0.01 µM)	relative viability ([1]; first compound 0.03162 µM)	relative viability ([1]; first compound 0.1 µM)	relative viability ([1]; first compound 0.3162 µM)	relative viability ([1]; first compound 1 µM)	relative viability ([2]; first compound 0.01 µM)	relative viability ([2]; first compound 0.03162 µM)	relative viability ([2]; first compound 0.1 µM)	relative viability ([2]; first compound 0.3162 µM)	relative viability ([2]; first compound 1 µM)	relative viability ([3]; first compound 0.01 µM)	relative viability ([3]; first compound 0.03162 µM)	relative viability ([3]; first compound 0.1 µM)	relative viability ([3]; first compound 0.3162 µM)	relative viability ([3]; first compound 1 µM)	relative viability ([4]; first compound 0.01 µM)	relative viability ([4]; first compound 0.03162 µM)	relative viability ([4]; first compound 0.1 µM)	relative viability ([4]; first compound 0.3162 µM)	relative viability ([4]; first compound 1 µM)
HCC-15	0.79	0.852	0.751	0.35	0.236	0.613	0.559	0.515	0.0886	0.177	1.07	1.02	1.02	0.314	0.157	0.496	0.526	0.429	0.152	0.132
HCC-44	0.45	0.27	0.224	0.212	0.162											0.215	0.156	0.134	0.198	0.112
HCC-78	0.287	0.266	0.285	0.222	0.174	0.326	0.548	0.366	0.287	0.285	0.476	0.532	0.438	0.404	0.252	0.708	0.824	0.582	0.499	0.226
HCC-366	0.345	0.253	0.212	0.042	0.035	0.504	0.412	0.444	0.0996	0.0443	0.961	0.848	0.442	0.12	0.0524	0.647	0.625	0.327	0.333	0.0669
HCC-827	0.925	1	0.852	0.599	0.233	0.228	0.24	0.338	0.245	0.225	0.996	1.01	0.915	0.284	0.177	0.413	0.412	0.338	0.315	0.156
HOP-62	0.412	0.458	0.185	0.116	0.13	0.49	0.479	0.377	0.165	0.106	1.06	1.05	0.967	0.628	0.418	0.71	0.795	0.578	0.475	0.276
IA-LM	0.514	0.614	0.565	0.372	0.246						1.06	1.09	0.865	0.975	0.494					
LC-2-ad	0.699	0.66	0.307	0.126	0.106	0.312	0.373	0.318	0.183	0.145	0.898	0.896	0.696	0.424	0.308	0.602	0.559	0.456	0.344	0.268
LCLC-97TM1	0.162	0.186	0.134	0.127	0.101	0.553	0.576	0.619	0.208	0.123	0.87	0.988	0.732	0.341	0.173	0.454	0.487	0.439	0.328	0.184
LCLC-103H	0.92	0.967	1.05	0.934	0.4	0.382	0.448	0.418	0.316	0.214	0.592	0.597	0.77	0.636	0.502	0.316	0.348	0.329	0.346	0.305
NCI-H522						0.791	0.716	0.518	0.43	0.328						0.665	0.623	0.535	0.595	0.614
NCI-H1299	0.978	1.03	0.923	0.529	0.416						1.07	1.11	1.11	0.997	0.811					
NCI-H1623						0.561	0.557	0.521	0.347	0.273	0.984	0.937	0.628	0.658	0.298	0.624	0.615	0.388	0.485	0.281
NCI-H1650						0.263	0.281	0.145	0.124	0.128	0.981	1.09	0.9	0.431	0.281	0.421	0.31	0.374	0.194	0.141
NCI-H1703	0.32	0.295	0.278	0.173	0.196						0.39	0.34	0.349	0.268	0.343					
NCI-H1792	0.631	0.61	0.623	0.228	0.221	0.698	0.805	1.01	0.439	0.283						0.177	0.189		0.257	0.0965
NCI-H2342						0.311	0.335	0.339	0.274	0.277	0.878	1.02	0.493	0.359	0.298	0.646	0.643	0.425	0.351	0.284
SW 900						0.48	0.418	0.241	0.147	0.134	0.806	0.87	0.725	0.596	0.278	0.359	0.618	0.459	0.322	0.16
